Laboratory results as given in patent publication US20120284809A1, “KNOCK DOWN MODEL OF DICKKOPF HOMOLOGUE 3 (Dkk3) FOR ASSESSING ROLE OF SAID Dkk3 IN SPERMATOGENESIS AND SEX REVERSAL” (National Institute of Immunology, priority 2011, published 2012).

System: spermatogenesis in Dkk3 knock down model
Test: Testosterone replacement in Dkk3 knock down model
Assay type: in vivo, non human vertebrate
Conditions: 5 mg intramuscularly
Protocol: Serum testosterone concentrations from the Dkk3 knock down model and wild-type can be assessed at 10 weeks of age. Blood can be obtained through retro orbital bleeding before sacrificing the model. Serum testosterone can be assayed using a modified testosterone immunoassay (RIA) system in triplicate. […] For testosterone replacement, Dkk3 knock down model can be injected intramuscularly with 5 mg of testosterone undecanoate. Controls may be injected with castor oil. Blood can be taken after one month of the injection and serum testosterone levels may be measured.

SMILES: CCCCCCCCCCC(=O)O[C@H]1CC[C@H]2[C@@H]3CCC4=CC(=O)CC[C@]4(C)[C@H]3CC[C@]12C [testosterone undecanoate]
- Sperm counts vs Dkk3 knock down model (not up to wild type control levels): marginal increase
- degree of spermatogenesis tubule disruption (histology) vs castor oil treated controls (one month): did not showed any improvement
